Patent US8729082B2, “Substituted imidazoquinoxalines” (Bayer Intellectual Property GmbH, priority 2009, dated 2014)

target: T1, human kinase Mps-1 (Homo sapiens, UniProt P33981); experiment: Mps-1 kinase assay (HTRF); type: biochemical; conditions: lowATP; mean; read-out: Mps1 lowATP mean IC50
T1 construct: N-terminally GST-tagged human full length recombinant Mps-1 kinase; purchased Invitrogen, Karslruhe, Germany PV4071
T1 sequence (P33981 1-857): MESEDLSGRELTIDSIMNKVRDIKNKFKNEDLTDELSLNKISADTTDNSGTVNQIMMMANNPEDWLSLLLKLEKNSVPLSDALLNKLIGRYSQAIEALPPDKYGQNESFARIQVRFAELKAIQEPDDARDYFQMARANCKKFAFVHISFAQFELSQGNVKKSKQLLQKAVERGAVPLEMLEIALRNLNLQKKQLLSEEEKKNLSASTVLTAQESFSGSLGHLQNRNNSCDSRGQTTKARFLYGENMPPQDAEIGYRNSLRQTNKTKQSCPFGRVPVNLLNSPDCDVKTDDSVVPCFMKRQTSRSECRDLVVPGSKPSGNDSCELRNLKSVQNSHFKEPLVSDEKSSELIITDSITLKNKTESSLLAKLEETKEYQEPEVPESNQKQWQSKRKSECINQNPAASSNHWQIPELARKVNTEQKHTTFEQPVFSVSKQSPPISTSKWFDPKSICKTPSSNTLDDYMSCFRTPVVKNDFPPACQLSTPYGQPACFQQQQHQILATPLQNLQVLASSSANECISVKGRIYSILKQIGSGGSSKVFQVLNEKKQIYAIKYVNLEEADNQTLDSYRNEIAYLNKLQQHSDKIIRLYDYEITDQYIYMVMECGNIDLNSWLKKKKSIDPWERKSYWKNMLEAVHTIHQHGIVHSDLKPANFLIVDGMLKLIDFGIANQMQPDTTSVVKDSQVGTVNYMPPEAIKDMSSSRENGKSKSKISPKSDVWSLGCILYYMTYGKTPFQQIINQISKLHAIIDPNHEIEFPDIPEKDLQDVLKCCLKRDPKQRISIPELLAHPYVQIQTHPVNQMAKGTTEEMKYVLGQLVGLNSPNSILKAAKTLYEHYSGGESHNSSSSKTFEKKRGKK
Experimental: The human kinase Mps-1 phosphorylates a biotinylated substrate peptide. Detection of the phosphorylated product is achieved by homogenous time-resolved fluorescence resonance energy transfer (HTRF) from Europium-labelled anti-phospho-Serine/Threonine antibody as donor to streptavidin labelled with cross-linked allophycocyanin (SA-XLent) as acceptor. Compounds are tested for their inhibition of the kinase activity.
N-terminally GST-tagged human full length recombinant Mps-1 kinase (purchased from Invitrogen, Karslruhe, Germany, cat. no PV4071) was used. As substrate for the kinase reaction a biotinylated peptide of the amino-acid sequence PWDPDDADITEILG (C-terminus in amide form, purchased from Biosynthan GmbH, Berlin) was used.
For the assay 50 nl of a 100-fold concentrated solution of the test compound in DMSO was pipetted into a black low volume 384 well microtiter plate (Greiner Bio-One, Frickenhausen, Germany), 2 μl of a solution of Mps-1 in assay buffer [0.1 mM sodium-ortho-vanadate, 10 mM MgCl2, 2 mM DTT, 25 mM Hepes pH 7.7, 0.05% BSA, 0.001% Pluronic F-127] were added and the mixture was incubated for 15 min at 22° C. to allow pre-binding of the test compounds to Mps-1 before the start of the kinase reaction. Then the kinase reaction was started by the addition of 3 μl of a solution of 16.7 μM ATP and 1.67 μM peptide in assay buffer and the resulting mixture was incubated for a reaction time of 60 min at 22° C. The concentration of Mps-1 in the assay was adjusted to the activity of the enzyme lot and was chosen appropriate to have the assay in the linear range, typical enzyme concentrations were in the range of about 1 nM (final conc. in the 5 μl assay volume). The reaction was stopped by the addition of 3 μl of a solution of HTRF detection reagents (100 mM Hepes pH 7.4, 0.1% BSA, 40 mM EDTA, 140 nM Streptavidin-XLent [#61GSTXLB, Fa. Cis Biointernational, Marcoule, France], 1.5 nM anti-phospho(Ser/Thr)-Europium-antibody [#AD0180, PerkinElmer LAS, Rodgau-Jügesheim, Germany].
The resulting mixture was incubated 1 h at 22° C. to allow the binding of the phosphorylated peptide to the anti-phospho(Ser/Thr)-Europium-antibody. Subsequently the amount of phosphorylated substrate was evaluated by measurement of the resonance energy transfer from the Europium-labelled anti-phospho(Ser/Thr) antibody to the Streptavidin-XLent. Therefore, the fluorescence emissions at 620 nm and 665 nm after excitation at 350 nm was measured in a HTRF reader, e.g. a Rubystar (BMG Labtechnologies, Offenburg, Germany) or a Viewlux (PerkinElmer LAS, Rodgau-Jügesheim, Germany). The ratio of the emissions at 665 nm and at […] was taken as the measure for the amount of phosphorylated substrate. The data were normalised (enzyme reaction without inhibitor=0% inhibition, all other assay components but no enzyme=100% inhibition).

SMILES	IC50
CC(C)CNc1nc2ccccc2n2c(-c3ccc4c(c3)OCO4)cnc12 [Example 1-28, 1-(1,3-benzodioxol-5-yl)-N-(2-methylpropyl)imidazo[1,2-a]quinoxalin-4-amine]	9.9 µM
CCOc1ccc(-c2cnc3c(NCC(C)C)nc4ccccc4n23)cc1 [Example 1-29, 1-(4-ethoxyphenyl)-N-(2-methylpropyl)imidazo[1,2-a]quinoxalin-4-amine]	4.98 µM
COc1ccc(-c2cnc3c(NCC(C)C)nc4ccccc4n23)c(C)c1 [Example 1-30, 1-(4-methoxy-2-methylphenyl)-N-(2-methylpropyl)imidazo[1,2-a]quinoxalin-4-amine]	15.3 µM
CC(C)CNc1nc2ccccc2n2c(-c3cccc(F)c3F)cnc12 [Example 1-31, 1-(2,3-difluorophenyl)-N-(2-methylpropyl)imidazo[1,2-a]quinoxalin-4-amine]	16.3 µM
CC(C)CNc1nc2ccccc2n2c(-c3cccnc3)cnc12 [Example 1-32, N-(2-methylpropyl)-1-(pyridin-3-yl)imidazo[1,2-a]quinoxalin-4-amine]	18.9 µM
COc1ccc(-c2cnc3c(NCC(C)C)nc4ccccc4n23)cc1F [Example 1-33, 1-(3-fluoro-4-methoxyphenyl)-N-(2-methylpropyl)imidazo[1,2-a]quinoxalin-4-amine]	1.76 µM
CC(C)CNc1nc2ccccc2n2c(-c3ccncc3)cnc12 [Example 1-34, N-(2-methylpropyl)-1-(pyridin-4-yl)imidazo[1,2-a]quinoxalin-4-amine]	11.9 µM
CC(C)CNc1nc2ccccc2n2c(-c3ccccc3O)cnc12 [Example 1-35, 2-{4-[(2-methylpropyl)amino]imidazo[1,2-a]quinoxalin-1-yl}phenol]	4.62 µM
CC(C)CNc1nc2ccccc2n2c(-c3cccc(O)c3)cnc12 [Example 1-36, 3-{4-[(2-methylpropyl)amino]imidazo[1,2-a]quinoxalin-1-yl}phenol]	18.6 µM
CC(C)CNc1nc2ccccc2n2c(-c3ccc(O)cc3)cnc12 [Example 1-37, 4-{4-[(2-methylpropyl)amino]imidazo[1,2-a]quinoxalin-1-yl}phenol]	0.301 µM
Cc1ccc(-c2cnc3c(NCC(C)C)nc4ccccc4n23)s1 [Example 1-38, N-(2-methylpropyl)-1-(5-methylthiophen-2-yl)imidazo[1,2-a]quinoxalin-4-amine]	6.05 µM
CC(C)CNc1nc2ccccc2n2c(-c3ccc4[nH]ccc4c3)cnc12 [Example 1-39, 1-(1H-indol-5-yl)-N-(2-methylpropyl)imidazo[1,2-a]quinoxalin-4-amine]	8.86 µM
CC(C)CNc1nc2ccccc2n2c(-c3ccc(S(C)(=O)=O)cc3)cnc12 [Example 1-40, N-(2-methylpropyl)-1-[4-(methylsulfonyl)phenyl]imidazo[1,2-a]quinoxalin-4-amine]	17.4 µM
CC(C)CNc1nc2ccccc2n2c(-c3cc(F)ccc3F)cnc12 [Example 1-41, 1-(2,5-difluorophenyl)-N-(2-methylpropyl)imidazo[1,2-a]quinoxalin-4-amine]	10.6 µM
Cc1ccc(-c2cnc3c(NCC(C)C)nc4ccccc4n23)c(F)c1 [Example 1-42, 1-(2-fluoro-4-methylphenyl)-N-(2-methylpropyl)imidazo[1,2-a]quinoxalin-4-amine]	5.91 µM
CC(C)CNc1nc2ccccc2n2c(-c3cc[nH]n3)cnc12 [Example 1-43, N-(2-methylpropyl)-1-(1H-pyrazol-3-yl)imidazo[1,2-a]quinoxalin-4-amine]	10.4 µM
CC(=O)NCc1cccc(-c2cnc3c(NCC(C)C)nc4ccccc4n23)c1 [Example 1-44, N-(3-{4-[(2-methylpropyl)amino]imidazo[1,2-a]quinoxalin-1-yl}benzyl)acetamide]	11.5 µM
Cc1ccc(-c2cnc3c(NCC(C)C)nc4ccccc4n23)cn1 [Example 1-45, N-(2-methylpropyl)-1-(6-methylpyridin-3-yl)imidazo[1,2-a]quinoxalin-4-amine]	8.19 µM
CNC(=O)c1ccc(-c2cnc3c(NCC(C)C)nc4ccccc4n23)cc1Cl [Example 1-46, 2-chloro-N-methyl-4-{4-[(2-methylpropyl)amino]imidazo[1,2-a]quinoxalin-1-yl}benzamide]	2.42 µM
CC(C)CNc1nc2ccccc2n2c(-c3ccc(C(=O)NC4CC4)c(Cl)c3)cnc12 [Example 1-47, 2-chloro-N-cyclopropyl-4-{4-[(2-methylpropyl)amino]imidazo[1,2-a]quinoxalin-1-yl}benzamide]	0.367 µM
CC(C)CNc1nc2ccccc2n2c(-c3ccc4[nH]ncc4c3)cnc12 [Example 1-48, 1-(1H-indazol-5-yl)-N-(2-methylpropyl)imidazo[1,2-a]quinoxalin-4-amine]	4.53 µM
CC(C)CNc1nc2ccccc2n2c(-c3ccc4cn[nH]c4c3)cnc12 [Example 1-49, 1-(1H-indazol-6-yl)-N-(2-methylpropyl)imidazo[1,2-a]quinoxalin-4-amine]	6.46 µM
CNC(=O)c1ccc(-c2cnc3c(NCC(C)C)nc4ccccc4n23)cn1 [Example 1-50, N-methyl-5-{4-[(2-methylpropyl)amino]imidazo[1,2-a]quinoxalin-1-yl}pyridine-2-carboxamide]	0.416 µM
O=C(NC1CC1)c1ccc(-c2cnc3c(NCCO)nc4ccccc4n23)cc1 [Example 2-1, N-cyclopropyl-4-[4-(2-hydroxy-ethylamino)-imidazo[1,2-a]quinoxalin-1-yl]-benzamide]	0.113 µM
O=C(NC1CC1)c1ccc(-c2cnc3c(NCCCN4CCOCC4)nc4ccccc4n23)cc1 [Example 2-2, N-cyclopropyl-4-(4-{[3-(morpholin-4-yl)propyl]amino}imidazo[1,2-a]quinoxalin-1-yl)benzamide]	0.396 µM
CC(C)CCNc1nc2ccccc2n2c(-c3ccc(C(=O)NC4CC4)cc3)cnc12 [Example 2-3, N-cyclopropyl-4-{4-[(3-methylbutyl)amino]imidazo[1,2-a]quinoxalin-1-yl}benzamide]	0.034 µM
Cc1cccc(CNc2nc3ccccc3n3c(-c4ccc(C(=O)NC5CC5)cc4)cnc23)c1 [Example 2-4, N-cyclopropyl-4-{4-[(3-methylbenzyl)amino]imidazo[1,2-a]quinoxalin-1-yl}benzamide]	0.132 µM
O=C(NC1CC1)c1ccc(-c2cnc3c(NCc4cccc(F)c4)nc4ccccc4n23)cc1 [Example 2-5, N-cyclopropyl-4-{4-[(3-fluorobenzyl)amino]imidazo[1,2-a]quinoxalin-1-yl}benzamide]	0.09 µM
Cc1ccccc1CNc1nc2ccccc2n2c(-c3ccc(C(=O)NC4CC4)cc3)cnc12 [Example 2-6, N-cyclopropyl-4-{4-[(2-methylbenzyl)amino]imidazo[1,2-a]quinoxalin-1-yl}benzamide]	0.232 µM
